# Reference: US6884577B2, “Methods for screening compounds for estrogenic activity” (The Regents of the University of California, priority 1993, dated 2005)
# Tests used:
# [1] = tested on: ER activation of AP-1 (Coll73-LUC); assay: Inhibitor screen: ER transiently transfected with Coll73-LUC in HeLa or HepG2 cells, hormone plus prospective inhibitor; type: cell-based
# Procedure: (§1) An estrogen receptor (ER) was transiently transfected into either HeLa or HepG2 cells along with an AP-1 responsive reporter gene, Coll73-LUC. The transformed cells were then contacted with antiestrogens or estrogen in combination with prospective inhibitor drugs. […] Luciferase was measured in cell extracts as an indication of AP-1 dependent promoter activity.
# [2] = tested on: HE15 activation of AP-1 activity; assay: Inhibitor screen: HE15 (constitutive ER) activation of AP-1 activity; type: cell-based; settings: HeLa cells
# Procedure: as §1
# [3] = tested on: human ER at the AP-1 site of the collagenase promoter (coll73); assay: Coll73-LUC luciferase reporter (collagenase promoter with AP-1 site) in cells transfected with human ER expression vector HEO; type: cell-based; settings: for Coll73 Luciferase Activity: relative to no ER; for half maximal dose relative to that for estrogen, induction of coll73-LUC: HeLa cells, 5 μg ER expression vector, FIG. 3B
# Procedure: All reporter genes described below have been modified by digestion with EcoR I and Ndel to remove a AP-I site in the backbone of pUG. […] Coll73-LUC was constructed by cloning a BamHI/Pvull fragment, that spanned the luciferase transcription unit, from pMG3 into coll73, which had been digested with BamHI and SmaI to remove the CAT transcription unit.
# (§2) Cells were maintained and transfected as previously described in Webb et al., supra. […] F9 cells were seeded at 30% confluence upon 1.5 cm dishes and transfected overnight by calcium phosphate coprecipitation with 5 μg reporter gene, 1 μg actin β-HCG, and 1 μg of HEO, 300 ng each of c-jun and c-fos expression vectors. The cells were glycerol shocked and refed in growth medium containing hormone or ethanolic vehicle.
# (§3) CAT assays were carried out as described in Webb et al., except that the cells were harvested one to two days after transfection instead of three. CAT activities were defined as the increase in cpm per hour at room temperature (corrected for background) per 100 μl of cell extract, normalized to production of 100 standard units of βHCG, from a co-transfected reporter gene, actin-HCG. […] Light units were defined as the luciferase activity per 100 μl of cell extract per 100 standard units of βHCG. Relative luciferase activities were calculated with respect to the results that were obtained in the absence of ER and hormone, which was set at 1 unit. For the data presented in Table I triplicate points were determined.
# In each case, the cells were transfected with different amounts of the human ER expression vector HEO to determine the optimal response.
# [4] = tested on: human ER at the AP-1 site (collagenase promoter, AP-1-tk), HeLa cells; assay: CAT assays of HeLa cells transfected with AP-1 site reporter genes and human ER expression vector; type: cell-based
# Procedure: Representations, at left, show the human collagenase promoter (shaded) and the consensus AP-1 site. […] CAT activity is normalized to a transfection control with the actin promoter driving expression of βHCG. Single representative experiments are shown, error bars represent standard deviation of triplicate hormone treatments.
# as §2, §3
# To further examine the effects of antiestrogens on the AP-1 directed pathway, reporter genes derived from the human collagenase promoter were transfected into HeLa cells.
# ER at classical ERE = assay: Reporter genes containing classical EREs (ERE-coll60, ERE-tk) in cells with ER; type: cell-based, human
# Procedure: FIGS. 2A-2C show antiestrogen stimulation of expression in an intact AP-1 Site, but not at classical EREs. […] Representations, at left, show the human collagenase promoter (shaded) and the consensus AP-1 site. CAT activities were from cells maintained in the absence of hormone or saturating concentrations of ICI 164,384 (ICI, 1 μM), tamoxifen (5 μM) or estradiol ([…]). CAT activity is normalized to a transfection control with the actin promoter driving expression of βHCG. Single representative experiments are shown, error bars represent standard deviation of triplicate hormone treatments.
# All reporter genes described below have been modified by digestion with EcoR I and Ndel to remove a AP-I site in the backbone of pUG. Thus, Coll73 and Coll60 are formerly_Coll73 and_Coll60 (Lopez et al. Mol. Cell. Biol. 13:3042-930 (1993)). Coll73-LUC was constructed by cloning a BamHI/Pvull fragment, that spanned the luciferase transcription unit, from pMG3 into coll73, which had been digested with BamHI and SmaI to remove the CAT transcription unit. EREcoll60 and EREcoll73 was prepared by ligation of a consensus ERE ([…], SEQ ID NO:3), into the HindIII site upstream of coll60 and coll73, respectively. All other reporter genes have been previously described (Webb et al. Mol. Endocrinol. 6:157-16725 (1992): and Lopez et al., supra).
# Cells were maintained and transfected as previously described in Webb et al., supra. Hormones were added two hours after plating in the following concentrations, estradiol 100 nM, ICI 164,384 1 μM, tamoxifen 5 μM, to ensure saturation of the response. F9 cells were seeded at 30% confluence upon 1.5 cm dishes and transfected overnight by calcium phosphate coprecipitation with 5 μg reporter gene, 1 μg actin β-HCG, and 1 μg of HEO, 300 ng each of c-jun and c-fos expression vectors. The cells were glycerol shocked and refed in growth medium containing hormone or ethanolic vehicle. In transient transfections, optimal amounts of HEO were employed and were as follows: HeLa (5 μg); NIH3T3 (1 μg); HepG2 (1 μg); SHM (300 ng); SY5Y (300 ng); CEF (100 ng); CV-1 (3 μg); MDA453 (3 μg); CHO (100 ng) and F9 (1 μg).
# CAT assays were carried out as described in Webb et al., except that the cells were harvested one to two days after transfection instead of three. CAT activities were defined as the increase in cpm per hour at room temperature (corrected for background) per 100 μl of cell extract, normalized to production of 100 standard units of βHCG, from a co-transfected reporter gene, actin-HCG. Luciferase assays were performed as described by Brasier et al. Methods Enzymol 216:386-97 (1992)) on similar extracts that were used for CAT assays. Light units were defined as the luciferase activity per 100 μl of cell extract per 100 standard units of βHCG. Relative luciferase activities were calculated with respect to the results that were obtained in the absence of ER and hormone, which was set at 1 unit. For the data presented in Table I triplicate points were determined. Standard deviations were less than 20%.
# The activity of antiestrogens in the AP-1 pathway was also compared with their activity in the classical pathway. […] A promoter with both an ERE and an AP-1 site (ERE-coll73 FIG. 2C) gave a large estrogen response, but retained some response to antiestrogens. Another control reporter, in which the tk promoter was regulated by a classical ERE (ERE-tk FIG. 2C) was also activated by estrogen, but not by antiestrogens.
# [5] = tested on: ER at the AP-1 site of the collagenase promoter; assay: Collagenase promoter reporter in cells that express endogenous ER (Ishikawa, MCF-7, ZR-75-1); type: cell-based; settings: for activation of the collagenase promoter (coll73-CAT) / induction of the collagenase promoter (coll73-LUC): Ishikawa cells; for activation of the collagenase promoter (coll73-CAT): endogenous receptor, FIG. 4A; for induction of the collagenase promoter (coll73-LUC): receptor levels raised by transfection
# Procedure: Left panel, coll73-CAT response with endogenous ER contrasted with the response of an ERE regulated reporter, ERE-coll60CAT. Right panel, coll73-LUC response with 3 μg co-transfected expression vector for human ER. Averages of three individual experiments are shown. […] A single representative experiment with triplicate hormone treatments is shown.
# (§4) To further explore this phenomenon, and to test whether similar hormone effects could be detected at physiological levels of ER, the expression of the collagenase promoter in cells that express endogenous ER was examined.
# [6] = tested on: ER at classical ERE, Ishikawa cells; assay: ERE-coll60CAT reporter in Ishikawa cells; type: cell-based
# Text: Left panel, coll73-CAT response with endogenous ER contrasted with the response of an ERE regulated reporter, ERE-coll60CAT. […] Averages of three individual experiments are shown. […] A single representative experiment with triplicate hormone treatments is shown.
# as §4
# MCF-7 cell = settings: Braacke et al. 1991; cited from earlier work
# [7] = tested on: ER at classical ERE, ERC1 cells; assay: Estrogenic activity screen: CAT reporter gene linked to a classical ERE in ERC1 cells; type: cell-based, human; settings: ICI 164384 with series 4 compounds
# Procedure: A library of hydroxystilbene derivatives as shown in FIG. 9 was screened for estrogenic activity in cell culture assays using a CAT reporter gene linked to a classical ERE in ERC1 cells as described in Webb et al., supra. After transient transfection with CAT reporter genes, each hydroxystilbene was added to the cultured ERC 1 cells. ER-regulated response was compared either to treatment with 17β-estradiol as a calibration standard or to treatment with an ethanolic vehicle.
# Dose response experiments were performed on the series 4 compounds over a concentration range of 0-100 μM (FIG. 1).
# [8] = CEF (fibroblast), no hormone, saturating hormone
# [9] = CHO (ovary), no hormone, saturating hormone
# [10] = CV-1 (kidney), no hormone, saturating hormone
# [11] = F9 (teratocarcinoma), no hormone, unliganded ER gave 3.2
# [12] = HELA (cervix), no hormone = 1, ICI 1 μM, tamoxifen 5 μM, estradiol 100 nM
# [13] = HEP G2 (liver), no hormone, saturating hormone
# [14] = MDA453 (breast), no hormone, saturating hormone
# [15] = NIH 3T3 (fibroblast), no hormone, saturating hormone
# [16] = SHM (myometrium), no hormone, saturating hormone
# [17] = SY5Y (neuroblastoma), no hormone, saturating hormone
compound,measurement,setting,value
Nc1ncc2[nH]cnc2n1 [2-aminopurine],inhibition of hormone action at AP-1 sites,[1],inhibit hormone action at AP-1 sites
same,inhibition of the activation of AP-1 activity by HE15,[2],inhibit
O=c1c(-c2ccc(O)cc2)coc2cc(O)cc(O)c12 [genistein],inhibition of hormone action at AP-1 sites,[1],inhibit hormone action at AP-1 sites
same,inhibition of the activation of AP-1 activity by HE15,[2],inhibit
CC/C(=C(\c1ccccc1)c1ccc(OCCN(C)C)cc1)c1ccccc1 [tamoxifen],Coll73 Luciferase Activity,[3]; [8],2.2
same,Coll73 Luciferase Activity,[3]; [9],2.2
same,Coll73 Luciferase Activity,[3]; [10],5.3
same,Coll73 Luciferase Activity,[3]; [11],1.1
same,Coll73 Luciferase Activity,[3]; [12],7.4
same,Coll73 Luciferase Activity,[3]; [13],6.5
same,"half maximal dose relative to that for estrogen, induction of coll73-LUC",[3],~100 times
same,Coll73 Luciferase Activity,[3]; [14],2.1
same,Coll73 Luciferase Activity,[3]; [15],3.1
same,Coll73 Luciferase Activity,[3]; [16],2.2
same,Coll73 Luciferase Activity,[3]; [17],2.1
same,"activation of transcription, collagenase AP-1 site upstream of the herpes virus tk promoter",[4],able to activate transcription
same,"activation of the collagenase promoter (coll517, coll73)","[4]; transiently expressed human ER, FIG. 2A",more potent an activator than estrogen
same,"inductions at classical EREs, % of estrogen",ER at classical ERE; CEF cells,30%
same,"inductions at classical EREs, % of estrogen",ER at classical ERE; CV-1 cells,30%
same,inductions of ERE-coll60 activity relative to those obtained with estrogen,"ER at classical ERE; HeLa cells, and most other cases",less than 3%
same,"inductions at classical EREs, % of estrogen",ER at classical ERE; MDA453 cells,30%
same,activation of the collagenase promoter (coll73-CAT),[5],activated
same,induction of the collagenase promoter (coll73-LUC),[5],inductions became larger
same,activation of the collagenase promoter,"[5]; MCF-7 cells, endogenous ER, FIG. 4B",not tamoxifen
same,activation of the collagenase promoter,[5]; ZR-75-1 cells,The same pattern occurred
same,expression of ERE-coll60,[6],neither ICI nor tamoxifen activated
O=S(=O)(NCCNC/C=C/c1ccc(Br)cc1)c1cccc2cnccc12 [H89],inhibition of the activation of AP-1 activity by HE15,[2],did not
Nc1nc2nc[nH]c2c(=S)[nH]1 [6-thioguanine],inhibition of hormone action at AP-1 sites,[1],inhibit hormone action at AP-1 sites
same,inhibition of the activation of AP-1 activity by HE15,[2],inhibit
CC/C(=C(\c1ccccc1)c1ccc(OCCN(C)C)cc1)c1ccc(O)cc1 [4′-hydroxytamoxifen],MCF-7 cell invasion activity of a re-constituted basement membrane,MCF-7 cell,stimulated
calphostin c,inhibition of the activation of AP-1 activity by HE15,[2],did not
"CCCCN(C)C(=O)CCCCCCCCCC[C@@H]1Cc2cc(O)ccc2[C@H]2CC[C@]3(C)[C@@H](O)CC[C@H]3[C@H]12 [ICI 164,384]",Coll73 Luciferase Activity,[3]; [8],3.2
same,Coll73 Luciferase Activity,[3]; [9],1.8
same,Coll73 Luciferase Activity,[3]; [10],3.1
same,Coll73 Luciferase Activity,[3]; [11],2.4
same,Coll73 Luciferase Activity,[3]; [12],3.7
same,Coll73 Luciferase Activity,[3]; [13],5.2
same,"half maximal dose relative to that for estrogen, induction of coll73-LUC",[3],about 10 times
same,Coll73 Luciferase Activity,[3]; [14],1.1
same,Coll73 Luciferase Activity,[3]; [15],3.0
same,Coll73 Luciferase Activity,[3]; [16],1.9
same,Coll73 Luciferase Activity,[3]; [17],2.3
same,"activation of transcription, collagenase AP-1 site upstream of the herpes virus tk promoter",[4],able to activate transcription
same,activity at classical EREs,ER at classical ERE; range of cell types of Table I (data not shown),pure antagonist
same,activation of the collagenase promoter (coll73-CAT),[5],usually inactive
same,induction of the collagenase promoter (coll73-LUC),[5],inductions became detectable
same,expression of ERE-coll60,[6],neither ICI nor tamoxifen activated
same,inhibition of the series 4 estrogenic activity,[7],inhibit the estrogenic activity of all the series 4 compounds
same,MCF-7 cell invasion activity of a re-constituted basement membrane,MCF-7 cell,blocked
